Measured values reported in patent US20260241021A1 (priority 2023, published 2026).

Columns and labels:
[1] = system: SKBR-3 breast cancer cells; experiment: Cytotoxicity of linker-payloads (CellTiter-Glo, six days); type: cell-based, human; details: SKBR-3, six days
Excerpt: Human SKBR-3 breast cancer cells (ATCC, HTB-30) were used in this study. […] The IC50 data for the different linker payloads were similar.

cathepsin B = cathepsin B (Homo sapiens, UniProt P07858); experiment: Digestion and exatecan release of linker-payloads by cathepsin B cleavage (LC-UV); type: in vitro ADME; details: 5 μg linker-payload, 10 μg/mL activated cathepsin B, 37° C., sampled for 24 hours
Description: This study was conducted to evaluate how the DCBO and BCN in the linker-payloads would affect drug release. The study also included the linker-payloads with the two-amino acid spacer “GG” in the digestion comparison. The study was evaluated by digesting the linker-payloads using cathepsin B and quantifying the released exatecan by LC-UV. To perform exatecan release test by cathepsin B cleavage, 5 μg of the linker-payloads were treated with 10 μg/mL of activated cathepsin B in digestion buffer for payload cleavage at 37° C. The reaction mixture was sampled every two hours for 24 hours, and the amounts of released exatecan and residual linker-payload were analyzed by LC-UV. A C18 column (Symmetry 5 μm, 2.1×150 mm Waters) was applied for this analysis. Samples were eluted with ACN/water gradient at a flow rate of 0.5 mL/min, and the chromatogram was monitored at 263 nm.

NCI-N87 gastric cells = details: NCI-N87, 6 days
Description: (§1) Tumor cells (2×10^3 cells/well) were seeded in 96 well plates and treated with ADCs for 6 days. CellTiter-Glo® Reagent (Cat. G7572, Promega) was prepared by adding CellTiter-Glo® Buffer into lyophilized CellTiter-Glo® Substrate. Reconstituted CellTiter-Glo® Reagent was added into the culture medium with cells at 1:1 ratio after treatment for 6 days. The plate was placed on an orbital shaker for 2 minutes to induce cell lysis and then incubated at room temperature for 10 minutes before recording the luminescent signals by Luminometer. The viability of each treated sample was compared to the non-treated control. The IC50 of each ADC was calculated by Prism.

[2] = system: Capan-1 pancreatic cancer cells; details: Capan-1, 6 days
Description: as §1

Compound | IC50 [1] | amount of released exatecan (cathepsin B) | percentage of linker-payloads existed (% linker-payload) after cathepsin B cleavage reaction (cathepsin B) | IC50 ([1]; Homo sapiens, SK-BR-3, 144 h) | IC50 (NCI-N87 gastric cells) | IC50 [2]
BCN-GGVA-Hydra-PAB-PEG24-Exatecan [DL-8] | 138 nM | 52.6% | 4% |  |  | 
CC[C@@]1(O)C(=O)OCc2c1cc1n(c2=O)Cc2c-1nc1cc(F)c(C)c3c1c2[C@@H](NC(=O)OC(C(=O)NCCOCCOCCOCCOCCOCCOCCOCCOCCOCCOCCOCCOCCOCCOCCOCCOCCOCCOCCOCCOCCOCCOCCOCCOC)c1ccc(NC(=O)[C@H](C)NC(=O)[C@@H](NC(=O)CNC(=O)CNC(=O)CCC(=O)N2Cc4ccccc4C#Cc4ccccc42)C(C)C)cc1)CC3 (mixture of isomers) [DL-7, DBCO-GGVA-Hydra-PAB-PEG24-Exatecan] |  |  | 66% | 96.7 nM |  | 
TX05-DBCO-PEG24-Exatecan ADC [ADC-4] |  |  |  |  | 5.51 nM | 71.8 nM
TX05-MCCA-PEG24-Exatecan ADC [ADC-3] |  |  |  |  | 2.9 nM | 64.6 nM
CC[C@@]1(O)C(=O)OCc2c1cc1n(c2=O)Cc2c-1nc1cc(F)c(C)c3c1c2[C@@H](NC(=O)OC(C(=O)NCCOCCOCCOCCOCCOCCOCCOCCOCCOCCOCCOCCOCCOCCOCCOCCOCCOCCOCCOCCOCCOCCOCCOCCOC)c1ccc(NC(=O)[C@H](C)NC(=O)[C@@H](NC(=O)CCC(=O)N2Cc4ccccc4C#Cc4ccccc42)C(C)C)cc1)CC3 (mixture of isomers) [DL-5, DBCO-VA-Hydra-PAB-PEG24-Exatecan] |  |  | 75% | 244 nM |  | 
CC[C@@]1(O)C(=O)OCc2c1cc1n(c2=O)Cc2c-1nc1cc(F)c(C)c3c1c2[C@@H](NC(=O)OC(C(=O)NCCOCCOCCOCCOCCOCCOCCOCCOCCOCCOCCOCCOCCOCCOCCOCCOCCOCCOCCOCCOCCOCCOCCOCCOC)c1ccc(NC(=O)[C@H](C)NC(=O)[C@@H](NC(=O)OC[C@@H]2[C@@H]4CCC#CCC[C@@H]42)C(C)C)cc1)CC3 (mixture of isomers) [DL-6, BCN-VA-Hydra-PAB-PEG24-Exatecan] |  |  | 14% | 221 nM |  | 
